Results reported in ChEMBL document CHEMBL1201862, “PubChem BioAssay data set” (2004).
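Exposure lasted 48 hours, with cells grown in 96-well plates and compounds tested at five concentrations. GI50: concentration for 50% inhibition of growth.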 Calls of active or inactive are those of the source. Cut-off read from the data, not from the text of the source: active = GI50 up to about 1.1 µM and inactive = higher. Non-standard residues stand in square brackets, D forms with d. Residues, ends and D or L forms follow the SMILES beside them. ξ: configuration not given here. *: point of attachment. NMeF = CN[C@@H](Cc1ccccc1)C(=O)O; NMeV = CN[C@H](C(=O)O)C(C)C; ξNMeV = CNC(C(=O)O)C(C)C; Boc = CC(C)(C)OC(=O)*; OBn = c1ccc(CO*)cc1

Columns and labels:
Experiment in all cases: NCI-60 cell line screen, 48 h
ACHN = system: ACHN
COLO 205 = system: COLO 205
DMS-273 = system: DMS-273
HOP-92 = system: HOP-92
IGROV-1 = system: IGROV-1
KM12 = system: KM12
NCI-H522 = system: NCI-H522
OVCAR-5 = system: OVCAR-5
RXF 393 = system: RXF 393
SF-268 = system: SF-268
SF-295 = system: SF-295
SK-MEL-2 = system: SK-MEL-2
SW-620 = system: SW-620
UO-31 = system: UO-31
A498 = system: A498
A549 = system: A549
NCI/ADR-RES = system: NCI/ADR-RES

Measured: GI50

CN1C(=O)CN2C(Cl)(Cl)C2(c2ccccc2F)c2cc([N+](=O)[O-])ccc21 (stereo unspecified)
inactive: ACHN 41.5 µM | COLO 205 52.1 µM | DMS-273 39.4 µM | HOP-92 19.3 µM | IGROV-1 63.8 µM | KM12 38.7 µM | NCI-H522 > 100 µM | OVCAR-5 > 100 µM | RXF 393 14.6 µM | SF-268 51.1 µM | SF-295 80.4 µM | SK-MEL-2 38.2 µM | SW-620 69 µM | UO-31 42.7 µM

O=[N+]([O-])c1ccc(C2SCc3nc4ccccc4n32)cc1 (stereo unspecified)
inactive: A498 88.3 µM | A549 50.4 µM | ACHN 47.8 µM | COLO 205 > 100 µM | DMS-273 54.1 µM | HOP-92 23.1 µM | IGROV-1 19.8 µM | KM12 73.3 µM | OVCAR-5 17.6 µM | RXF 393 36.7 µM | SF-268 > 100 µM | SF-295 32.6 µM | SK-MEL-2 60.1 µM | SW-620 > 100 µM | UO-31 24.8 µM

CC(=O)N/C(=C\c1ccccc1/C=C(\NC(C)=O)c1nc2cc(C)c(C)cc2[nH]1)c1nc2cc(C)c(C)cc2[nH]1
inactive: A498 42.4 µM | A549 28 µM | ACHN 14.8 µM | COLO 205 19.5 µM | DMS-273 2.56 µM | HOP-92 8.36 µM | IGROV-1 26.5 µM | KM12 11.8 µM | NCI-H522 1.73 µM | OVCAR-5 36.8 µM | SF-268 24.1 µM | SK-MEL-2 22.1 µM | SW-620 31.1 µM | UO-31 3.22 µM

C=CCC12CC(=O)CCC1CC(=O)C2 (stereo unspecified)
inactive: A498 > 100 µM | A549 > 100 µM | ACHN > 100 µM | COLO 205 > 100 µM | DMS-273 > 100 µM | IGROV-1 > 100 µM | KM12 > 100 µM | NCI-H522 > 100 µM | RXF 393 > 100 µM | SF-268 > 100 µM | SK-MEL-2 > 100 µM | SW-620 > 100 µM | UO-31 > 100 µM

CCOC(=O)C1=C(C)N(NC(=O)OC)C2(N)N(NC(=O)OC)C(C)=C(C(=O)OCC)C12C#N (stereo unspecified)
inactive: A498 > 100 µM | A549 > 100 µM | ACHN > 100 µM | DMS-273 > 100 µM | IGROV-1 > 100 µM | KM12 > 100 µM | NCI-H522 > 100 µM | OVCAR-5 > 100 µM | SF-268 > 100 µM | SF-295 > 100 µM | SK-MEL-2 > 100 µM | SW-620 > 100 µM | UO-31 > 100 µM

COc1ccc(C(=O)C(C(=O)CCC(=O)Nc2cccc(C(F)(F)F)c2)c2ccccc2)cc1 (stereo unspecified)
inactive: A498 > 100 µM | A549 65.9 µM | ACHN 80.7 µM | COLO 205 > 100 µM | DMS-273 > 100 µM | HOP-92 53.6 µM | IGROV-1 > 100 µM | KM12 > 100 µM | NCI-H522 32.1 µM | OVCAR-5 > 100 µM | SF-268 > 100 µM | SF-295 93.5 µM | SK-MEL-2 96.8 µM | SW-620 > 100 µM | UO-31 55.1 µM

O=NN(CCCl)C(=O)N[C@H]1CC[C@@H](CC(=O)O)CC1
inactive: A498 > 100 µM | A549 > 100 µM | COLO 205 > 100 µM | DMS-273 > 100 µM | HOP-92 > 84.9 µM | IGROV-1 > 100 µM | KM12 > 100 µM | NCI-H522 > 61.7 µM | NCI/ADR-RES > 100 µM | OVCAR-5 > 100 µM | RXF 393 > 100 µM | SF-268 33 µM | SF-295 67.5 µM | SK-MEL-2 > 100 µM | SW-620 > 100 µM | UO-31 > 100 µM

c1ccc(/N=c2\snc3scc(-c4ccccc4)n23)cc1
inactive: A498 > 100 µM | A549 37.5 µM | ACHN 48 µM | COLO 205 31.5 µM | DMS-273 38.8 µM | HOP-92 34.2 µM | IGROV-1 41.8 µM | KM12 36.5 µM | NCI-H522 18.7 µM | OVCAR-5 > 100 µM | RXF 393 46.2 µM | SF-268 50.1 µM | SF-295 37.5 µM | SK-MEL-2 34.8 µM | SW-620 39.4 µM | UO-31 27.6 µM

O=C(c1ccccc1)c1ccc2cccc(OC3OC(CO)C(O)C(O)C3O)c2n1 (stereo unspecified)
inactive: A498 26.8 µM | A549 > 100 µM | ACHN > 100 µM | COLO 205 > 100 µM | DMS-273 > 100 µM | IGROV-1 > 100 µM | KM12 > 100 µM | NCI-H522 > 100 µM | OVCAR-5 > 100 µM | RXF 393 > 100 µM | SF-268 > 100 µM | SF-295 51.5 µM | SK-MEL-2 > 100 µM | SW-620 > 100 µM | UO-31 > 100 µM

CCNC1=Nc2ccccc2-n2c(nn3nc4ccccc4c23)N1CC
inactive: A498 > 100 µM | A549 > 100 µM | ACHN > 100 µM | COLO 205 > 100 µM | DMS-273 > 100 µM | HOP-92 > 100 µM | IGROV-1 > 100 µM | KM12 29.6 µM | NCI-H522 72.4 µM | OVCAR-5 > 100 µM | RXF 393 > 100 µM | SF-268 > 100 µM | SF-295 37.3 µM | SW-620 > 100 µM

O=C(/C=C/C1C(=O)NC(=O)NC1=O)CC(=O)C(=O)Nc1cc(Cl)c(Cl)cc1Cl
inactive: A498 > 100 µM | A549 > 100 µM | ACHN > 100 µM | COLO 205 > 100 µM | DMS-273 > 100 µM | IGROV-1 > 100 µM | KM12 > 100 µM | NCI-H522 > 100 µM | OVCAR-5 > 100 µM | RXF 393 > 100 µM | SF-268 > 100 µM | SF-295 > 100 µM | SK-MEL-2 > 100 µM | SW-620 > 100 µM | UO-31 > 100 µM

CC1OC(OCC2OC(Oc3c(-c4ccc(O)cc4)oc4cc(O)cc(O)c4c3=O)C(OC3OC(C)C(O)C(O)C3O)C(O)C2O)C(O)C(O)C1O (stereo unspecified)
inactive: A498 > 100 µM | A549 > 100 µM | ACHN > 67.6 µM | COLO 205 > 46 µM | DMS-273 > 84.1 µM | HOP-92 > 100 µM | IGROV-1 > 100 µM | KM12 > 100 µM | NCI-H522 > 100 µM | OVCAR-5 > 100 µM | RXF 393 > 100 µM | SF-268 > 100 µM | SF-295 > 100 µM | SK-MEL-2 > 100 µM | SW-620 > 36.2 µM | UO-31 > 100 µM

O=C(O)CNS(=O)(=O)c1ccc(NC(=O)c2ccc([N+](=O)[O-])cc2)cc1
inactive: A498 > 100 µM | A549 > 100 µM | ACHN > 100 µM | COLO 205 > 100 µM | DMS-273 > 100 µM | HOP-92 > 100 µM | IGROV-1 > 100 µM | KM12 > 100 µM | NCI-H522 79.6 µM | OVCAR-5 > 100 µM | RXF 393 > 100 µM | SF-268 > 100 µM | SF-295 > 100 µM | SK-MEL-2 > 100 µM | SW-620 > 100 µM | UO-31 > 100 µM

COc1cc(C2c3cc4c(cc3[C@@H](Nc3ccc(C(=O)O)cc3)C3COC(=O)[C@H]23)OCO4)cc(OC)c1O (stereo partly specified)
inactive: A498 18.7 µM | A549 18.3 µM | ACHN 31.6 µM | DMS-273 7.16 µM | HOP-92 2.46 µM | IGROV-1 17.8 µM | KM12 21.6 µM | RXF 393 9.35 µM | SF-268 14.6 µM | SF-295 14.1 µM | SK-MEL-2 30.4 µM | UO-31 22.5 µM

CC(C)C(C(=O)N(C)[C@H](C(=O)N1CCC[C@H]1C(=O)N(C)[C@@H](Cc1ccccc1)C(=O)OCc1ccccc1)C(C)C)N(C)C(=O)[C@@H](NC(=O)OC(C)(C)C)C(C)C (stereo partly specified) (Boc-V[ξNMeV][NMeV]P[NMeF]-OBn)
inactive: A498 19.5 µM | A549 18.7 µM | ACHN > 57.4 µM | COLO 205 11.4 µM | DMS-273 5.48 µM | HOP-92 10.2 µM | IGROV-1 22.5 µM | KM12 > 10 µM | NCI-H522 > 100 µM | OVCAR-5 > 31.6 µM | RXF 393 24.6 µM | SF-268 > 31.6 µM | SF-295 19.8 µM | SK-MEL-2 > 31.6 µM | SW-620 > 31.6 µM | UO-31 30.4 µM

COC[C@@H]1Cc2cc(OC)c3c(c2[C@H](c2ccc(OC)c(OC)c2)[C@H]1COC)OCO3 [HYPOPHYLLANTHIN]
inactive: A498 > 100 µM | A549 69.8 µM | ACHN 93.8 µM | COLO 205 > 100 µM | DMS-273 > 100 µM | HOP-92 70 µM | IGROV-1 > 100 µM | KM12 > 100 µM | NCI-H522 55.7 µM | OVCAR-5 > 100 µM | RXF 393 42.6 µM | SF-268 51.6 µM | SF-295 57.5 µM | SK-MEL-2 > 100 µM | SW-620 > 100 µM | UO-31 70.1 µM
